Values of other authors in patent US10758505B2, “Therapeutic compositions and methods” (Innovus Pharmaceuticals, Inc., priority 2017, dated 2020).

Legend:
[1] = molecular target: P-glycoprotein (Homo sapiens, UniProt P08183)
[2] = molecular target: human CYP3A4 (Homo sapiens, UniProt P08684)
human CYP3A4, sequence (P08684 whole entry): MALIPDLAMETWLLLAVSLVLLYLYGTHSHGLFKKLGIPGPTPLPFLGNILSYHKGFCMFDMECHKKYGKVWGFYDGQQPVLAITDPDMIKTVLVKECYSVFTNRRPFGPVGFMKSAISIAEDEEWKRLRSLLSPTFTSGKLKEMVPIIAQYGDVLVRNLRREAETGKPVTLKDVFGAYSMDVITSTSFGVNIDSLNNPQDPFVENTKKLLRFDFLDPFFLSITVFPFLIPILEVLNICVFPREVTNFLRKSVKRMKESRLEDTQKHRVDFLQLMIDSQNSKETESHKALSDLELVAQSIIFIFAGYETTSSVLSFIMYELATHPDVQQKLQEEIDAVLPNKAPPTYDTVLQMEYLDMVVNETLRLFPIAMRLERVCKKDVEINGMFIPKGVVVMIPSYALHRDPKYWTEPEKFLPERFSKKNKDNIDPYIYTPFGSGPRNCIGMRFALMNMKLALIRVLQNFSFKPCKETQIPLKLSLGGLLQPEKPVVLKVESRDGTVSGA

P-glycoprotein, sequence (P08183 whole entry): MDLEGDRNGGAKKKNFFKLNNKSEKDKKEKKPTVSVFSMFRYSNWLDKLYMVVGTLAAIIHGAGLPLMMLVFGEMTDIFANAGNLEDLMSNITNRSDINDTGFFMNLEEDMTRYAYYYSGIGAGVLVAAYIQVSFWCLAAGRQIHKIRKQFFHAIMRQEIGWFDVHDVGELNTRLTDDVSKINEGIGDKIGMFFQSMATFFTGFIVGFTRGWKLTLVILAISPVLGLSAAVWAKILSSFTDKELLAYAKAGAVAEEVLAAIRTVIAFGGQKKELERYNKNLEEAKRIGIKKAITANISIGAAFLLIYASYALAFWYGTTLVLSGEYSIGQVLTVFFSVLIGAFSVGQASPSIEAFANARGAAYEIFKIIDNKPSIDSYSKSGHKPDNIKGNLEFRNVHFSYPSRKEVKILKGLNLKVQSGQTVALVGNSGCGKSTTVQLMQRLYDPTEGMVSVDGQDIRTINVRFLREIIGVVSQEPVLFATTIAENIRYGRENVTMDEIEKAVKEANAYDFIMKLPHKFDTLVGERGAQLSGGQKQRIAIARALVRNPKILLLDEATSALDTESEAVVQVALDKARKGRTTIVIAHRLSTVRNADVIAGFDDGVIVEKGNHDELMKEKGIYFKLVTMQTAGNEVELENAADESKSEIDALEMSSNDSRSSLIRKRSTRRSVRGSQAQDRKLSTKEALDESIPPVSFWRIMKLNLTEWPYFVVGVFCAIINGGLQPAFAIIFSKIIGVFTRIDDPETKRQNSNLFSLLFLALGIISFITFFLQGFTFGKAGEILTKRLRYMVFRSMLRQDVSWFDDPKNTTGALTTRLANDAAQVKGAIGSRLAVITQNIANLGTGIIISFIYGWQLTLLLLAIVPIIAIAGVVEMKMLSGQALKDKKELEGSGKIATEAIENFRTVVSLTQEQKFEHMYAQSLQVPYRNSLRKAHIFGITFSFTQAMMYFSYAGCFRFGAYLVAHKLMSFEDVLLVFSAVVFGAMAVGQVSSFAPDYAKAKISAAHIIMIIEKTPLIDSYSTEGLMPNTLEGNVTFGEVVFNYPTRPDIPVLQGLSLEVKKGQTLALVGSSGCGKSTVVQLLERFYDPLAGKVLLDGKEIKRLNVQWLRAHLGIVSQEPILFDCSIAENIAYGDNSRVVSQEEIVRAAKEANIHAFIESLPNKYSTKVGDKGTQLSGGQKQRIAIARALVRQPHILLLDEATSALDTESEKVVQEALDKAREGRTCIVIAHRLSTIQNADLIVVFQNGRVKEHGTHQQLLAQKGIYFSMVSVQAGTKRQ

SMILES: O=C(/C=C/C=C/c1ccc2c(c1)OCO2)N1CCCCC1 [Bioperine®, (2E,4E)-5-(1,3-benzodioxol-5-yl)-1-(piperidin-1-yl)penta-2,4-dien-1-one]
- inhibition of P-glycoprotein [1]: inhibits
- inhibition of human CYP3A4 [2]: inhibits
